The target of the assay is T1, human TRPM8 (Homo sapiens, UniProt Q7Z2W7).
T1 construct: expressed in transfected cells; host or cells: HEK293
Nature of the assay: fluo-4 Ca2+ assay selectivity, HEK cells expressing human TRPM8. Type of assay: cell-based. The following applies: concentrations up to 50 μM. The text has this: KU-19-19 (DSMZ no. ACC 395), CAL-29 (DSMZ no. ACC 515), 647-V (DSMZ no. ACC 414), RT-4 (DSMZ no. ACC 412), and RT-112 (DSMZ no. ACC 418) bladder cancer cell lines were obtained from the Leibniz Institute DSMZ (German Collection of Microorganisms and Cell Cultures). Human TRPV3 (NM_145068, purchased from OriGene) and mouse TRPV3 (NM_001371006), rat TRPV1, mouse TRPV2, mouse TRPV4, human TRPM2, human TRPM8, and human TRPA1 were stably transfected in HEK293 cells as described before.[27] […]
All fluorometric Ca^2+ assays were performed in HBS buffer at room temperature. […] For the primary compound screening and the generation of concentration-response analyses, a robotic liquid handling station (Freedom Evo 150; Tecan) with a built-in custom-made fluorescence plate imager was used. […] Fluorescence was excited using a 470-nm light-emitting diode, and emitted light was imaged through a 515-nm–long pass filter with a cooled Zyla 5.5 camera (Andor). Fluorescence was recorded and processed under the control of the μ-Manager 2.0 gamma software (https://micro-manager.org.[28]). After recording baseline fluorescence, compounds were dispensed into the wells via the liquid handling device. […] For further analysis, fluorescence signals were calculated for each well, corrected for background intensities and normalized to the initial signals. […]

T1 sequence (Q7Z2W7 whole entry): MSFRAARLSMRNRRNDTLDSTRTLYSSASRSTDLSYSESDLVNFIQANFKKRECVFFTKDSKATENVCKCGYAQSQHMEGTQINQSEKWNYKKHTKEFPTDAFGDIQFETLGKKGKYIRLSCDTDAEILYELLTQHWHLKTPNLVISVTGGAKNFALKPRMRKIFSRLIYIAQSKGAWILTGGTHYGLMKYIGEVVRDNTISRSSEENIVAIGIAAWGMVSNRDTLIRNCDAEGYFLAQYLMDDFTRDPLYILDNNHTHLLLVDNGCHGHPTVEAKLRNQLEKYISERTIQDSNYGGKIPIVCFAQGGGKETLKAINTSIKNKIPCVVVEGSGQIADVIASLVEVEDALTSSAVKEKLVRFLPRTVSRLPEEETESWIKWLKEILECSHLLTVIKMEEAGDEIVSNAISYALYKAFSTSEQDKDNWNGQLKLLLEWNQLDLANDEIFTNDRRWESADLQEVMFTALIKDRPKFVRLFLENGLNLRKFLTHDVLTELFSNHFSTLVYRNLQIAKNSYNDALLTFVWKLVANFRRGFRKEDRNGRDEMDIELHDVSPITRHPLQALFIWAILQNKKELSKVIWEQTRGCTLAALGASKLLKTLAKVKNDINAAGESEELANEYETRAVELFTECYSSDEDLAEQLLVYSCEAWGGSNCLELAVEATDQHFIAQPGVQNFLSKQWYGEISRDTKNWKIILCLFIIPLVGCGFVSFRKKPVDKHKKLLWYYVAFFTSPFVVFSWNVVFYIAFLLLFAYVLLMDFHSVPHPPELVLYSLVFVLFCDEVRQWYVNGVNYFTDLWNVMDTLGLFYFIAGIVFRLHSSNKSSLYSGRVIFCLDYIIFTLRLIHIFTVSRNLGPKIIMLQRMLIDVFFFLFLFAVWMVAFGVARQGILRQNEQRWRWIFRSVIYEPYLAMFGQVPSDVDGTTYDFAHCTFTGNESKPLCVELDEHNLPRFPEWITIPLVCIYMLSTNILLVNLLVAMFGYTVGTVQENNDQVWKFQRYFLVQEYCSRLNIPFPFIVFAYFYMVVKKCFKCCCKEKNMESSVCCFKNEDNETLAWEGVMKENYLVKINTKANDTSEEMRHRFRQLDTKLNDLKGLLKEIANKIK

For `COC(=O)C12CN(Cc3ccccc3)CC1(C(=O)OC)CN(Cc1ccccc1)C2` (stereo not shown) [AV3-1], the “effect on TRPM8” value is on record as “no effect”.

For the origin of these results see publication PMC12881674, “Activation of TRPV3 channels in bladder cancer cells stimulates ATP release” (Molecular Pharmacology, 2025).
